Test results published in PubChem BioAssay AID2060343 (Molecular Pharmacology Branch, DTP, NCI, 2025).
Several values for one entry are separate records, joined by “and”; a condition that tells them apart may be missing. Equal entries are not always repeated.

Tested on: 138582-337-R-J1-PDC spheroids with HUVEC/MSC, viability
Assay: Anticancer human tumor 138582-337-R-J1-PDC patient-derived Merkel cell tumor cell line growth inhibition [IpAb]
Conditions: for viability, T/C: stronger effect = lower value
From the text: Combinatorial screen of targeted agents with ipatasertib and abemaciclib in multi-cell type tumor spheroids
A high-throughput screen of multi-cell type tumor spheroids was designed to identify active combinations of targeted small molecules and ipatasertib or abemaciclib. Complex spheroids include a stromal component modeled by human endothelial cells (HUVEC) and fibroblasts modeled by human mesenchymal stem cells (MSCs). The concentration ranges selected for each drug and investigational agent were based upon clinically achievable concentrations if the clinical Cmax of the agent was known.
Compounds. The drugs and investigational agents: ipatasertib (NSC767898), abemaciclib(NSC768073), selumetinib (NSC741078), trametinib (758246), adavosertib (NSC754352), everolimus (NSC733504), sapanisertib (NSC764658), vemurafenib (NSC761431), venetoclax (NSC766270), copanlisib (NSC809693), apelisib (NSC765974), palbociblib (NSC758247), vemurafenib (NSC761431), dabrafenib (NSC764134), ravoxertinib (NSC781343), BMS-387032 (NSC767048), sotorasib (NSC818433), talazoparib (NSC767125) and afursertib (NSC778305), were obtained from the National Cancer Institute (NCI) Developmental Therapeutics Program Chemical Repository. The FDA-approved anticancer drug set is available from the NCI Developmental Therapeutics Program. […] The stock solutions were prepared in dimethyl sulfoxide (DMSO, Sigma-Aldrich, St. Louis, MO, cat. D2650) at 800-fold the tested concentration and stored at -70 degrees C prior to their use. All drugs and investigational agents were tested over a range starting from a high concentration at or near the clinical Cmax and decreasing in half-log increments. If the clinical Cmax for an agent had not been determined, the highest concentration tested was 10 microM.
NCI60 Cell Culture. NCI60 cell lines were obtained from the NCI Developmental Therapeutics Program Tumor Repository. For each lot of cells, the Repository performed Applied Biosystems AmpFLSTR Identifiler testing with PCR amplification to confirm consistency with the published Identifier STR profile for each cell line. Cells were kept in continuous culture for no more than 20 passages. The optimal seeding densities for each of the cell lines at each time point assessed were determined prior to performing the concentration response studies. Briefly, the NCI60 human tumor lines were grown as monolayers in RPMI 1640 medium supplemented with 10% FBS and 2 mmol/L L-glutamine.
An additional 9 lines were from the NCI60 cell line panel including MDA-MB-231 breast carcinoma, MDA-MB-468 breast carcinoma, MCF7 breast carcinoma, Hs578T breast carcinoma, MALME-3M melanoma, SK-MEL-2 melanoma, SK-OV-3 ovarian carcinoma, DU-145 prostate carcinoma, PC-3 prostate carcinoma, all cell lines along with major genetic alterations are listed on Table 2. Pooled donor human umbilical vein endothelial cells (HUVEC, Lonza, cat. CC-2519) and human mesenchymal stem cells (hMSC, Lonza, cat. PT-2501) were purchased from Lonza (Walkersville, MD).
PDMR cell lines were grown in complete medium (DC medium): Dulbecco's modified Eagle's medium (DMEM)/F12 supplemented with 5% fetal bovine serum (FBS), 2 mM L-glutamine, 100 U/mL penicillin and 100 µg/ml streptomycin, 0.4 µg/ml hydrocortisone, 10 ng/ml epidermal growth factor (EGF) recombinant human protein, 24 µg/mL adenine, and 0.1 mg/mL primocin. During culture from frozen stock vials, PDMR cells were cultured in the same medium containing 10 µM Y-27632 (see Table 3). The PDCs were cultured in complete DMEM/F12 media without 10 microM Y-27632 dihydrochloride for at least two passages prior to the screen. The pooled donor HUVEC and hMSC were cultured in endothelial cell growth medium 2 (PromoCell, Heidelberg, Germany, cat. C-22011) and mesenchymal stem cell growth medium 2 (PromoCell, cat. C-28009), respectively. For all experiments, HUVEC and hMSC were used at passages </=5.
[…]
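Note: spheroids exposed to compounds for seven days.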
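Throughout, for viability, T/C: 100% = DMSO vehicle control viability.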

SMILES	viability, T/C (compound 0.0316 µM)	viability, T/C (compound 0.1 µM)	viability, T/C (compound 0.316 µM)	viability, T/C (compound 1 µM)	viability, T/C (compound 3.16 µM)	viability, T/C (compound 10 µM)	IC50 (curve of compound)	viability, T/C (compound 0.01 µM)	also measured
C=CC(=O)N1CCN(c2nc(=O)n(-c3c(C)ccnc3C(C)C)c3nc(-c4c(O)cccc4F)c(F)cc23)C(C)C1 (configuration not stated)	101% and 99.3%	104% and 97%	113% and 121%	120% and 108%	149% and 144%	187% and 181%	> 10000 nM		
C=CCn1c(=O)c2cnc(Nc3ccc(N4CCN(C)CC4)cc3)nc2n1-c1cccc(C(C)(C)O)n1	96.7% and 116%	93.5% and 103%	98.4% and 90.7%	102% and 89.4%	126% and 110%	137% and 139%	> 10000 nM		
CC(=O)c1c(C)c2cnc(Nc3ccc(N4CCNCC4)cn3)nc2n(C2CCCC2)c1=O							> 300 nM		viability, T/C (compound 0.000949 µM): 95.6% and 98.8%; viability, T/C (compound 0.003 µM): 104% and 90.5%; viability, T/C (compound 0.00949 µM): 102% and 101%; viability, T/C (compound 0.03 µM): 93.2% and 87.6%; viability, T/C (compound 0.0949 µM): 94.9% and 92%; viability, T/C (compound 0.3 µM): 100% and 84.8%
CC(C)(C)c1cnc(CSc2cnc(NC(=O)C3CCNCC3)s2)o1							88.2 nM and 152 nM		viability, T/C (compound 0.00949 µM): 110% and 99.4%; viability, T/C (compound 0.03 µM): 110% and 114%; viability, T/C (compound 0.0949 µM): 45.9% and 84.2%; viability, T/C (compound 0.3 µM): 0.46% and 0.83%; viability, T/C (compound 0.949 µM): 0.54% and 0.68%; viability, T/C (compound 3 µM): 0.61% and 0.65%
CC(C)NCC(C(=O)N1CCN(c2ncnc3c2C(C)CC3O)CC1)c1ccc(Cl)cc1 (configuration not stated)		92.1% [middle of 13 runs]	79.9% [middle of 13 runs]	64.4% [middle of 13 runs]	53.1% [middle of 13 runs]	42.7% [middle of 13 runs]			
CC(C)n1nc(-c2ccc3oc(N)nc3c2)c2c(N)ncnc21	59.4% and 57.2%	39.2% and 46.5%					51.9 nM and 70.1 nM	70% and 77.5%	viability, T/C (compound 0.000316 µM): 97% and 95%; viability, T/C (compound 0.001 µM): 90.5% and 88.2%; viability, T/C (compound 0.00316 µM): 82.9% and 83.9%
CC1(C)CCC(CN2CCN(c3ccc(C(=O)NS(=O)(=O)c4ccc(NCC5CCOCC5)c([N+](=O)[O-])c4)c(Oc4cnc5[nH]ccc5c4)c3)CC2)=C(c2ccc(Cl)cc2)C1	86% and 96.1%	83.1% and 79.8%	74.2% and 75.6%	80.1% and 87.6%	97% and 94.6%	78% and 68.1%	> 10000 nM		
CCCS(=O)(=O)Nc1ccc(F)c(C(=O)c2c[nH]c3ncc(-c4ccc(Cl)cc4)cc23)c1F	96.5% and 102%	89.8% and 97.6%	101% and 98.8%	92.3% and 99%	115% and 116%	97.3% and 81.5%	> 10000 nM		
CCN1CCN(Cc2ccc(Nc3ncc(F)c(-c4cc(F)c5nc(C)n(C(C)C)c5c4)n3)nc2)CC1	90.6% [middle of 13 runs]	90.9% [middle of 13 runs]	90.5% [middle of 13 runs]	96.4% [middle of 13 runs]				96.6% [middle of 13 runs]	IC50 (compound alone, run of 05/18/2021): > 1000 nM
COc1c(OCCCN2CCOCC2)ccc2c3n(c(=NC(=O)c4cnc(N)nc4)nc12)CCN3	53.5% and 58.3%	36.1% and 37.8%	17.5% and 18%	2.36% and 3.37%			39 nM and 51.2 nM	71.2% and 75.9%	viability, T/C (compound 0.00316 µM): 94.9% and 84.9%
